Consider five molecules from patent US20050260637A1, “Drug screening” (priority 2004, published 2005).

Where only a bound is given, the exact number is not on record here.

For data set [1], the system named is RNR containing hRRM2 or p53R2. The data set can be described thus: In vitro RNR activity assay, both reconstituted RNRs compared (average, selective index, comparison in words). In kind it is biochemical, human. As for the experimental part: (§1) To reconstitute an active RNR, three 6′His-tag human RNR subunit proteins (hRRM2, p53R2, and hRRM1) were prokaryotically expressed, purified using Ni-resin affinity chromatography, and stored in 50 mM Tris-HCl, pH 7.4, 100 mM KCl at −70° C. according to standard techniques. The purified proteins were subjected to SDS-PAGE analysis. […] To reconstitute RNR, 1 μM of hRRM2 or p53R2 protein was incubated with 0.5 μM hRRM1 protein in multiple-well plates. The reconstitute RNR was tested for RNR activity according to standard techniques.
(§2) Each compound of various concentration was mixed with the purified hRRM2 and hRRM1, or p53R2 and hRRM1 at room temperature for 30 minutes. An enzymatic reaction buffer was then added to the mixture to reach a final volume of 100 μl and incubated at 37° C. for 30 minutes. The reaction buffer contained […] [^3H] CDP, 50 mM HEPES pH 7.2,6 mM DTT, 4 mM MgOAC, 2 mM ATP, 0.05 mM CDP, 100 mM KCl, and 0.24 mM NADPH. […] FeCl3 could be added to the buffer as an iron source. After dephosphorylation, the supernatant of each reaction mixture was analyzed by an HPLC-connected radioactivity detector. IC50 values were calculated by the non-linear regression equations: f (x)=(a-d)/[1+(x/c)^b]+d.
(§3) The above-described four SB-HSCs were tested for their inhibitory potency and subunit-selectivity by the in vitro RNR assay in the same manner descried above. The dose-dependent inhibition curves were found.

Data set [2] addresses T1, M2/M1 (hRRM2 and hRRM1 reconstituted RNR) (Homo sapiens, UniProt P31350).
T1 construct: 6xHis; made in house
T1 sequence (P31350 1-389): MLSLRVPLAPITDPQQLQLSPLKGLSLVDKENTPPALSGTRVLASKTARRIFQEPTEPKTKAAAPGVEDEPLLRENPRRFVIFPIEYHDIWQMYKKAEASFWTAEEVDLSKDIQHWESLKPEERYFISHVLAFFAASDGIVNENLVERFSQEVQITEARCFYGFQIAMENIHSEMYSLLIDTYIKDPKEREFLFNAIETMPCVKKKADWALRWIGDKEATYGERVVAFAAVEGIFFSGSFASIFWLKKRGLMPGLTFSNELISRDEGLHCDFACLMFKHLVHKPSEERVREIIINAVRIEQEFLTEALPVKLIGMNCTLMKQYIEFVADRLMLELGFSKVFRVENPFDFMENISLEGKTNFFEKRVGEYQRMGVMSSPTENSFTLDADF
The data set can be described thus: In vitro RNR activity assay with reconstituted hRRM2/hRRM1 ([3H]CDP reduction). In kind it is biochemical. The settings on record: compound in dH2O; read-out: In vitro RR activity (IC50 ± sd) M2/M1. On the procedure:
as §1, §2

The target of data set [3] is T2, p53R2/M1 (p53R2 and hRRM1 reconstituted RNR) (Homo sapiens, UniProt Q7LG56).
T2 construct: 6xHis; made in house
T2 sequence (Q7LG56 1-351): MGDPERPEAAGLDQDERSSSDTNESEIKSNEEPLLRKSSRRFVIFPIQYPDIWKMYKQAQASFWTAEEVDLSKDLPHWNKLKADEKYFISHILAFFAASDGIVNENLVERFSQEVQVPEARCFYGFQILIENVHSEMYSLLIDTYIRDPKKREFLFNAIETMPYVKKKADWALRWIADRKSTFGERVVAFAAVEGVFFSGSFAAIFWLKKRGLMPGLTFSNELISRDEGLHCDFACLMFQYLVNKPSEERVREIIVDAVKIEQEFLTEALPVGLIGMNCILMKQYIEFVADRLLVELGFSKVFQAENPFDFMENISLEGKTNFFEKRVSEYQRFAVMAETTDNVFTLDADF
The data set can be described thus: In vitro RNR activity assay with reconstituted p53R2/hRRM1 ([3H]CDP reduction). The settings on record: compound in dH2O; read-out: In vitro RR activity (IC50 ± sd) p53R2/M1. Format: biochemical. As for the experimental part:
as §1, §2

In data set [4] the test system is T3, RNR containing hRRM2 or p53R2.
T3 construct: In vitro RR activity (IC50) Average; other: compound in 1% DMSO; average of M2/M1 and p53R2/M1; other: compound in 2.5% DMSO; other: compound in dH2O + FeCl3; other: compound in dH2O; Inhi; fused on or other part: 6xHis tag on each subunit
The data set can be described thus: In vitro RNR activity assay, both reconstituted RNRs compared (average, selective index, comparison in words). In kind it is biochemical, human. The settings on record: compound in dH2O; average of M2/M1 and p53R2/M1; read-out: In vitro RR activity (IC50) Average. As for the experimental part: as §1, §2, §3

The nature of data set [5]: Standard cell-based assay. The conditions noted are these: read-out: Cell-based assay (IC50 ± sd).
The target of data set [6] is T4, hRRM1 (human ribonucleotide reductase large subunit M1).
T4 chain: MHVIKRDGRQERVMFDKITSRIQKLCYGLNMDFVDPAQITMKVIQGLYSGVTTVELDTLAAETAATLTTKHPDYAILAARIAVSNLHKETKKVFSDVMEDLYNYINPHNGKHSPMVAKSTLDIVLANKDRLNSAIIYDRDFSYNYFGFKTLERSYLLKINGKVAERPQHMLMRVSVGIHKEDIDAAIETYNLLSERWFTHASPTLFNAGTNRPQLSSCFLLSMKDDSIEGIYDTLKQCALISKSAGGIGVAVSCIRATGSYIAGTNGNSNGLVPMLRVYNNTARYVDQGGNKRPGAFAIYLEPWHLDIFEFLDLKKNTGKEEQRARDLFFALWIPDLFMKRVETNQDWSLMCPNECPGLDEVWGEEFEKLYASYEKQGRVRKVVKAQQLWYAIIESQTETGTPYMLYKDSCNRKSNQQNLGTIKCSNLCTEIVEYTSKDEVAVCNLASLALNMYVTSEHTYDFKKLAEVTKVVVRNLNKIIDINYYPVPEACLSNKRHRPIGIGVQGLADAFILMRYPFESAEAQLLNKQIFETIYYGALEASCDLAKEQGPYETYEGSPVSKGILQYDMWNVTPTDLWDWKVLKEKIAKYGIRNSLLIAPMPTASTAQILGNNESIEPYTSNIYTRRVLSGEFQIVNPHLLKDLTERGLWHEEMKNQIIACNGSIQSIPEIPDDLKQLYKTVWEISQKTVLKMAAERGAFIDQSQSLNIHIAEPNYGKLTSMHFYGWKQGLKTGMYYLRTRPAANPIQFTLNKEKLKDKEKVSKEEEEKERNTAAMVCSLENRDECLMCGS

Data set [7] concerns the target T5, hRRM1 (human ribonucleotide reductase large subunit M1) (human, UniProt P23921 1-792).
T5 construct: also called R1 subunit
T5 sequence: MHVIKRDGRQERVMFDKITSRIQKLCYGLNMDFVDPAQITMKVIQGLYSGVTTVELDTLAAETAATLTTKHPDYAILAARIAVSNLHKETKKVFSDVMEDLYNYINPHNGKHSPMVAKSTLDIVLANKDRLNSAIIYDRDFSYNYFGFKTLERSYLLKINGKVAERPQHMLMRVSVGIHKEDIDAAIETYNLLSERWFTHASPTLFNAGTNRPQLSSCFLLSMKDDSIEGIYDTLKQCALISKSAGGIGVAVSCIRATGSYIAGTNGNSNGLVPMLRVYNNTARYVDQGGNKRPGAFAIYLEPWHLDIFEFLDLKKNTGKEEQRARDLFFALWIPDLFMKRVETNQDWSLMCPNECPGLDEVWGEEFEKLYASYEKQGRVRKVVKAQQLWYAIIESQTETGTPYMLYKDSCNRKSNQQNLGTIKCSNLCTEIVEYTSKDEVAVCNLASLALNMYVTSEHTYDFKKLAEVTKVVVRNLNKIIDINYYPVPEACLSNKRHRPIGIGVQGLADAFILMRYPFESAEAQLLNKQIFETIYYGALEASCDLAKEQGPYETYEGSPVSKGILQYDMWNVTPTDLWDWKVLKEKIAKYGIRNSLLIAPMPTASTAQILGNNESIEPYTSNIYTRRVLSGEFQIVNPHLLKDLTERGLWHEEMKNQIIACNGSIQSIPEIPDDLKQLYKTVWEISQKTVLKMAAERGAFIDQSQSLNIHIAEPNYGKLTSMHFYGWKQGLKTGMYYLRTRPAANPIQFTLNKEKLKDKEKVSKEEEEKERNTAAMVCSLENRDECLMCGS
The experiment in a line: complex formation (method not described).

With `C[S+](C)[O-]` [DMSO], in data set [1], the “Small subunit selectivity of RNR inhibition (in words)” value was “inhibited p53R2-containing-RNR more potently than hRRM2-containing RNR”. `NNC(N)=O` [SC, semicarbazide, reference compound]: the IC50 in data set [2] is greater than 5 mM; in data set [3] it was greater than 5 mM; in data set [4] it was greater than 5 mM; in data set [5], greater than 2.19 mM.

B1: p53R2 (human ribonucleotide reductase small subunit p53R2) (protein)
chain: MGDPERPEAAGLDQDERSSSDTNESEIKSNEEPLLRKSSRRFVIFPIQYPDIWKMYKQAQASFWTAEEVDLSKDLPHWNKLKADEKYFISHILAFFAASDGIVNENLVERFSQEVQVPEARCFYGFQILIENVHSEMYSLLIDTYIRDPKKREFLFNAIETMPYVKKKADWALRWIADRKSTFGERVVAFAAVEGVFFSGSFAAIFWLKKRGLMPGLTFSNELISRDEGLHCDFACLMFQYLVNKPSEERVREIIVDAVKIEQEFLTEALPVGLIGMNCILMKQYIEFVADRLLVELGFSKVFQAENPFDFMENISLEGKTNFFEKRVSEYQRFAVMAETTDNVFTLDADF
As for B1, the “RNR activity of reconstituted RNR” value in data set [6] is listed as “It was found it possessed RNR activity”.

B2: truncated form of the M2 subunit, lacking these 7 amino acids at the C-terminus (enzyme)
chain: MLSLRVPLAPITDPQQLQLSPLKGLSLVDKENTPPALSGTRVLASKTARRIFQEPTEPKTKAAAPGVEDEPLLRENPRRFVIFPIEYHDIWQMYKKAEASFWTAEEVDLSKDIQHWESLKPEERYFISHVLAFFAASDGIVNENLVERFSQEVQITEARCFYGFQIAMENIHSEMYSLLIDTYIKDPKEREFLFNAIETMPCVKKKADWALRWIGDKEATYGERVVAFAAVEGIFFSGSFASIFWLKKRGLMPGLTFSNELISRDEGLHCDFACLMFKHLVHKPSEERVREIIINAVRIEQEFLTEALPVKLIGMNCTLMKQYIEFVADRLMLELGFSKVFRVENPFDFMENISLEGKTNFFEKRVGEYQRMGVMSSPTENS
notes: also called truncated M2
Regarding B2, the binding result in data set [7] is listed as “no binding”.

B3: hRRM2 (human ribonucleotide reductase small subunit M2) (protein)
chain: MLSLRVPLAPITDPQQLQLSPLKGLSLVDKENTPPALSGTRVLASKTARRIFQEPTEPKTKAAAPGVEDEPLLRENPRRFVIFPIEYHDIWQMYKKAEASFWTAEEVDLSKDIQHWESLKPEERYFISHVLAFFAASDGIVNENLVERFSQEVQITEARCFYGFQIAMENIHSEMYSLLIDTYIKDPKEREFLFNAIETMPCVKKKADWALRWIGDKEATYGERVVAFAAVEGIFFSGSFASIFWLKKRGLMPGLTFSNELISRDEGLHCDFACLMFKHLVHKPSEERVREIIINAVRIEQEFLTEALPVKLIGMNCTLMKQYIEFVADRLMLELGFSKVFRVENPFDFMENISLEGKTNFFEKRVGEYQRMGVMSSPTENSFTLDADF
Consider B3, for which the “RNR activity of reconstituted RNR” value in data set [6] is given as “It was found it possessed RNR activity”.
